Measurements: the OligoGym collection
HELM strings list units from the 5' end as sugar, base in round brackets, then linkage (d deoxyribose, r ribose, m 2'-O-methyl, p phosphodiester). Strings are as the collection lists them; they lack the last nucleoside at the 3' end of the tested compound. [moe] = 2'-O-(2-methoxyethyl) (MOE); [sp] = phosphorothioate linkage; [m5C] = 5-methylcytosine

Molecular target: HTT
Assay: mouse, dose not given
Settings: ASO

In order of falling 3 h FOB score:
1. RNA1{[moe](T)[sp].[moe](G)p.[moe]([m5C])p.[moe](A)p.[moe](T)p.[moe](T)p.d(A)[sp].d([m5C])[sp].d(T)[sp].d(T)[sp].d(T)[sp].d(T)[sp].d(T)[sp].d(A)[sp].d([m5C])[sp].d(A)[sp].[moe](A)p.[moe](T)[sp].[moe](G)}$$$$ (last 3' nucleoside missing)  6.5 score 0-7
2. RNA1{[moe](G)[sp].[moe]([m5C])p.[moe](A)[sp].[moe](T)[sp].[moe](T)[sp].d(A)[sp].d([m5C])[sp].d(T)[sp].d(T)[sp].d(T)[sp].d(T)[sp].d(T)[sp].d(A)[sp].d([m5C])[sp].d(A)[sp].[moe](A)[sp].[moe](T)p.[moe](G)[sp].[moe](G)}$$$$ (last 3' nucleoside missing)  5.25 score 0-7
3. RNA1{[moe](A)[sp].[moe](A)p.[moe]([m5C])p.[moe](A)p.[moe](A)[sp].d(A)[sp].d(T)[sp].d(A)[sp].d(T)[sp].d(T)[sp].d(T)[sp].d(T)[sp].d([m5C])[sp].d(A)[sp].d(A)[sp].[moe]([m5C])p.[moe](T)p.[moe](G)[sp].[moe](G)}$$$$ (last 3' nucleoside missing)  4.5 score 0-7
4. RNA1{[moe]([m5C])[sp].[moe](T)p.[moe](T)p.[moe](G)p.[moe](G)p.[moe](T)p.d(T)[sp].d(A)[sp].d(G)[sp].d(T)[sp].d(T)[sp].d(T)[sp].d(T)[sp].d([m5C])[sp].d([m5C])[sp].d(T)[sp].[moe](T)p.[moe](T)[sp].[moe](T)}$$$$ (last 3' nucleoside missing)  4.25 score 0-7
5. RNA1{[moe](G)[sp].[moe](T)p.[moe](G)p.[moe]([m5C])p.[moe](A)p.[moe](T)p.d(T)[sp].d(A)[sp].d([m5C])[sp].d(T)[sp].d(T)[sp].d(T)[sp].d(T)[sp].d(T)[sp].d(A)[sp].d([m5C])[sp].[moe](A)p.[moe](A)[sp].[moe](T)}$$$$ (last 3' nucleoside missing)  3 score 0-7
6. RNA1{[moe](T)[sp].[moe]([m5C])p.[moe]([m5C])p.[moe](T)p.[moe]([m5C])[sp].d(T)[sp].d(T)[sp].d(T)[sp].d([m5C])[sp].d(A)[sp].d([m5C])[sp].d(T)[sp].d(G)[sp].d([m5C])[sp].d(T)[sp].[moe](T)p.[moe]([m5C])p.[moe](T)[sp].[moe](A)}$$$$ (last 3' nucleoside missing)  3 score 0-7
7. RNA1{[moe]([m5C])[sp].[moe](T)p.[moe](A)p.[moe](G)p.[moe](A)[sp].d(G)[sp].d(G)[sp].d(T)[sp].d([m5C])[sp].d(A)[sp].d(T)[sp].d([m5C])[sp].d(T)[sp].d(T)[sp].d([m5C])[sp].[moe](G)p.[moe](G)p.[moe](T)[sp].[moe]([m5C])}$$$$ (last 3' nucleoside missing)  2 score 0-7
8. RNA1{[moe](G)[sp].[moe]([m5C])p.[moe](A)p.[moe](T)p.[moe]([m5C])[sp].d(T)[sp].d(T)[sp].d(G)[sp].d(T)[sp].d(T)[sp].d(T)[sp].d(T)[sp].d(A)[sp].d([m5C])[sp].d([m5C])[sp].[moe](A)p.[moe]([m5C])p.[moe]([m5C])[sp].[moe]([m5C])}$$$$ (last 3' nucleoside missing)  1.5 score 0-7
9. RNA1{[moe](G)[sp].[moe](T)p.[moe]([m5C])[sp].[moe](A)[sp].[moe]([m5C])[sp].d(A)[sp].d(G)[sp].d([m5C])[sp].d(T)[sp].d(T)[sp].d(T)[sp].d(T)[sp].d(A)[sp].d(T)[sp].d(T)[sp].[moe](T)[sp].[moe]([m5C])p.[moe]([m5C])[sp].[moe](A)}$$$$ (last 3' nucleoside missing)  1.25 score 0-7
10. RNA1{[moe](G)[sp].[moe](T)p.[moe](G)p.[moe]([m5C])p.[moe](A)[sp].d(T)[sp].d(T)[sp].d(A)[sp].d([m5C])[sp].d(T)[sp].d(T)[sp].d(T)[sp].d(T)[sp].d(T)[sp].d(A)[sp].[moe]([m5C])p.[moe](A)p.[moe](A)[sp].[moe](T)}$$$$ (last 3' nucleoside missing)  1.25 score 0-7
11. RNA1{[moe](G)[sp].[moe](G)p.[moe](T)p.[moe](T)p.[moe](A)[sp].d(G)[sp].d(T)[sp].d(T)[sp].d(T)[sp].d(T)[sp].d([m5C])[sp].d([m5C])[sp].d(T)[sp].[moe](T)p.[moe](T)p.[moe](T)[sp].[moe](A)}$$$$ (last 3' nucleoside missing)  1 score 0-7
12. RNA1{[moe](A)[sp].[moe]([m5C])p.[moe](A)p.[moe](G)p.[moe]([m5C])[sp].d(T)[sp].d(T)[sp].d(T)[sp].d(T)[sp].d(A)[sp].d(T)[sp].d(T)[sp].d(T)[sp].d([m5C])[sp].d([m5C])[sp].[moe](A)p.[moe](T)p.[moe](A)[sp].[moe]([m5C])}$$$$ (last 3' nucleoside missing)  1 score 0-7
13. RNA1{[moe](G)[sp].[moe]([m5C])p.[moe](A)p.[moe](T)p.[moe](T)[sp].d(A)[sp].d([m5C])[sp].d(T)[sp].d(T)[sp].d(T)[sp].d(T)[sp].d(T)[sp].d(A)[sp].d([m5C])[sp].d(A)[sp].[moe](A)p.[moe](T)p.[moe](G)[sp].[moe](G)}$$$$ (last 3' nucleoside missing)  1 score 0-7
14. RNA1{[moe](G)[sp].[moe](T)p.[moe]([m5C])p.[moe](A)p.[moe]([m5C])[sp].d(A)[sp].d(G)[sp].d([m5C])[sp].d(T)[sp].d(T)[sp].d(T)[sp].d(T)[sp].d(A)[sp].d(T)[sp].d(T)[sp].[moe](T)p.[moe]([m5C])p.[moe]([m5C])[sp].[moe](A)}$$$$ (last 3' nucleoside missing)  1 score 0-7
15. RNA1{[moe](G)[sp].[moe](G)p.[moe](T)p.[moe](T)p.[moe](A)[sp].d(G)[sp].d(T)[sp].d(T)[sp].d(T)[sp].d(T)[sp].d([m5C])[sp].d([m5C])[sp].d(T)[sp].d(T)[sp].d(T)[sp].[moe](T)p.[moe](A)p.[moe](T)[sp].[moe](A)}$$$$ (last 3' nucleoside missing)  1 score 0-7
16. RNA1{[moe](G)[sp].[moe]([m5C])p.[moe](T)p.[moe](T)p.[moe](T)[sp].d(G)[sp].d(A)[sp].d(T)[sp].d(T)[sp].d(T)[sp].d(T)[sp].d(T)[sp].d(A)[sp].d([m5C])[sp].d([m5C])[sp].[moe](A)p.[moe](G)p.[moe](T)[sp].[moe](T)}$$$$ (last 3' nucleoside missing)  1 score 0-7
17. RNA1{[moe](G)[sp].[moe]([m5C])p.[moe](T)p.[moe](T)p.[moe](T)p.[moe](G)p.d(A)[sp].d(T)[sp].d(T)[sp].d(T)[sp].d(T)[sp].d(T)[sp].d(A)[sp].d([m5C])[sp].d([m5C])[sp].d(A)[sp].[moe](G)p.[moe](T)[sp].[moe](T)}$$$$ (last 3' nucleoside missing)  0.5 score 0-7
18. RNA1{[moe](A)[sp].[moe](T)p.[moe]([m5C])p.[moe]([m5C])p.[moe](A)[sp].d(G)[sp].d(A)[sp].d(T)[sp].d(T)[sp].d(A)[sp].d(T)[sp].d(A)[sp].d([m5C])[sp].d(A)[sp].d(T)[sp].[moe]([m5C])p.[moe](T)p.[moe]([m5C])[sp].[moe]([m5C])}$$$$ (last 3' nucleoside missing)  0 score 0-7
19. RNA1{[moe](A)[sp].[moe]([m5C])p.[moe](T)p.[moe]([m5C])p.[moe](A)[sp].d(T)[sp].d(T)[sp].d(T)[sp].d([m5C])[sp].d([m5C])[sp].d(A)[sp].d([m5C])[sp].d([m5C])[sp].d(T)[sp].d(T)[sp].[moe]([m5C])p.[moe](A)p.[moe](G)[sp].[moe]([m5C])}$$$$ (last 3' nucleoside missing)  0 score 0-7
20. RNA1{[moe](A)[sp].[moe]([m5C])p.[moe](A)p.[moe](G)p.[moe]([m5C])p.[moe](T)p.d(T)[sp].d(T)[sp].d(T)[sp].d(A)[sp].d(T)[sp].d(T)[sp].d(T)[sp].d([m5C])[sp].d([m5C])[sp].d(A)[sp].[moe](T)p.[moe](A)[sp].[moe]([m5C])}$$$$ (last 3' nucleoside missing)  0 score 0-7
21. RNA1{[moe]([m5C])[sp].[moe](A)p.[moe]([m5C])p.[moe](T)p.[moe]([m5C])[sp].d(A)[sp].d(T)[sp].d(T)[sp].d(T)[sp].d([m5C])[sp].d([m5C])[sp].d(A)[sp].d([m5C])[sp].d([m5C])[sp].d(T)[sp].[moe](T)p.[moe]([m5C])p.[moe](A)[sp].[moe](G)}$$$$ (last 3' nucleoside missing)  0 score 0-7
22. RNA1{[moe](T)[sp].[moe](G)p.[moe]([m5C])p.[moe](T)p.[moe](G)[sp].d([m5C])[sp].d(T)[sp].d([m5C])[sp].d(A)[sp].d([m5C])[sp].d(T)[sp].d([m5C])[sp].d(A)[sp].d(T)[sp].d(T)[sp].[moe](T)p.[moe]([m5C])p.[moe]([m5C])[sp].[moe](A)}$$$$ (last 3' nucleoside missing)  0 score 0-7
23. RNA1{[moe](T)[sp].[moe](T)p.[moe](G)p.[moe](G)p.[moe](T)p.[moe](T)p.d(A)[sp].d(G)[sp].d(T)[sp].d(T)[sp].d(T)[sp].d(T)[sp].d([m5C])[sp].d([m5C])[sp].d(T)[sp].d(T)[sp].[moe](T)p.[moe](T)[sp].[moe](A)}$$$$ (last 3' nucleoside missing)  0 score 0-7
24. RNA1{[moe](G)[sp].[moe]([m5C])p.[moe]([m5C])p.[moe](A)p.[moe](T)[sp].d(A)[sp].d(T)[sp].d(T)[sp].d(T)[sp].d(T)[sp].d([m5C])[sp].d(T)[sp].d([m5C])[sp].d(A)[sp].d(A)[sp].[moe]([m5C])p.[moe](T)p.[moe](T)[sp].[moe](T)}$$$$ (last 3' nucleoside missing)  0 score 0-7
25. RNA1{[moe](G)[sp].[moe](G)p.[moe](T)p.[moe]([m5C])p.[moe](A)[sp].d([m5C])[sp].d(A)[sp].d(G)[sp].d([m5C])[sp].d(T)[sp].d(T)[sp].d(T)[sp].d(T)[sp].d(A)[sp].d(T)[sp].[moe](T)p.[moe](T)p.[moe]([m5C])[sp].[moe]([m5C])}$$$$ (last 3' nucleoside missing)  0 score 0-7
26. RNA1{[moe](T)[sp].[moe]([m5C])p.[moe](A)p.[moe]([m5C])p.[moe](A)[sp].d(G)[sp].d([m5C])[sp].d(T)[sp].d(T)[sp].d(T)[sp].d(T)[sp].d(A)[sp].d(T)[sp].[moe](T)p.[moe](T)p.[moe]([m5C])[sp].[moe]([m5C])}$$$$ (last 3' nucleoside missing)  0 score 0-7
